A word on the IC50: it is the concentration that gives 50% inhibition.

Here are results for nine molecules from patent US9096624B2 (OSI Pharmaceuticals, LLC, priority 2009, dated 2015).

Experiment [1] addresses T1, FAK (Homo sapiens, UniProt Q05397). In words: Biochemical HTRF (FRET) assay of FAK kinase activity. As to conditions: 100 uM ATP; biotinylated PGT substrate; read-out: Mean FAK Biochem FRET IC50 (100 uM ATP). As for the experimental part: Biochemical HTRF (FRET) Assay Protocol
The ability of compounds to inhibit the kinase activity of recombinant FAK enzyme was determined by a HTRF (FRET) assay using Biotinylated PGT (B*PGT) as a peptide substrate. […] The reaction is stopped after 1 h and phosphotyrosine content of Biotin*PGT is measured using anti-phosphotyrosine specific Mab label with Eu3+-cryptate (Cisbio) and XL665 labeled streptavidin (Cisbio) by Homogeneous Time-Resolved Fluorescence (HTRF) method.
The Stock Reagents used are as follows:
Enzyme Buffer Reaction Buffer plus 0.03% BSA.
Development Buffer: 1 part 200 mM EDTA/50 mM Tris-HCl pH 7.4; 2 parts 1M KF; 0.07% BSA.
Assay Protocol: The compounds were serially diluted from 10 uM to […] (1:5 dil, 10 points) in kinase buffer (1×) containing 3% DMSO and added 5 uL to each well of a 384-well plate except negative and positive control wells. Only DMSO was added to positive and negative control wells. For negative control wells, no ATP was added but only 5 uL of B*PGT was added. B*PGT (final conc 7.5 ng/well) and ATP (final conc 100 uM) was added in 5 uL to all wells except negative control wells. Reaction was started by adding FAK enzyme (final conc 0.2 ng/well) in 5 ul of enzyme buffer per well and incubated at RT for 1 h. Phospho-tyrosine content of B*BGT was detected by adding PT66-Cryptate (1:100 dil) and XL665 conjugated streptavidin (1:100 dil) to each well in 7.5 uL development buffer and incubating for 1 h at RT. The plate was read on Victor machine
Background: TR-FRET usually uses a lanthanide donor and a delayed reading to cut background.

Experiment [2] addresses T1, FAK. The experiment is described as follows: Cell-based capture ELISA for inhibition of FAK autophosphorylation [pY397] in MiaPaCa2 cells. As for the experimental part:
Cell-Based Assays for Inhibition of FAK Autophosphorylation: MiaPaCa2 and U87MG
ELISA kit from Invitrogen (KHO0441).
Reagents Provided in Biosource FAK [pY397]
The cells were then suspended in cell assay medium.
Background: ELISA stands for enzyme-linked immunosorbent assay.

For experiment [3], the target named is T1, FAK. The experiment is described as follows: biochemical.
The mark [4] stands for this setting: MIA-PaCa2 cells on fibronectin, 2 h, no plasma, read-out: Mean FAK Cell Mechanistic IC50 MIA-PaCa2.
The mark [5] stands for this setting: MIA-PaCa2 cells, + 50% human plasma, read-out: Mean FAK Cell Mechanistic IC50 + 50% hP MIA-PaCa2.
Where [6] appears, read: MIA-PaCa2 cells, + 50% mouse plasma (Table 2), read-out: Mean FAK Cell Mechanistic IC50 + 50% mP MIA-PaCa2.

T1 sequence (Q05397 whole entry): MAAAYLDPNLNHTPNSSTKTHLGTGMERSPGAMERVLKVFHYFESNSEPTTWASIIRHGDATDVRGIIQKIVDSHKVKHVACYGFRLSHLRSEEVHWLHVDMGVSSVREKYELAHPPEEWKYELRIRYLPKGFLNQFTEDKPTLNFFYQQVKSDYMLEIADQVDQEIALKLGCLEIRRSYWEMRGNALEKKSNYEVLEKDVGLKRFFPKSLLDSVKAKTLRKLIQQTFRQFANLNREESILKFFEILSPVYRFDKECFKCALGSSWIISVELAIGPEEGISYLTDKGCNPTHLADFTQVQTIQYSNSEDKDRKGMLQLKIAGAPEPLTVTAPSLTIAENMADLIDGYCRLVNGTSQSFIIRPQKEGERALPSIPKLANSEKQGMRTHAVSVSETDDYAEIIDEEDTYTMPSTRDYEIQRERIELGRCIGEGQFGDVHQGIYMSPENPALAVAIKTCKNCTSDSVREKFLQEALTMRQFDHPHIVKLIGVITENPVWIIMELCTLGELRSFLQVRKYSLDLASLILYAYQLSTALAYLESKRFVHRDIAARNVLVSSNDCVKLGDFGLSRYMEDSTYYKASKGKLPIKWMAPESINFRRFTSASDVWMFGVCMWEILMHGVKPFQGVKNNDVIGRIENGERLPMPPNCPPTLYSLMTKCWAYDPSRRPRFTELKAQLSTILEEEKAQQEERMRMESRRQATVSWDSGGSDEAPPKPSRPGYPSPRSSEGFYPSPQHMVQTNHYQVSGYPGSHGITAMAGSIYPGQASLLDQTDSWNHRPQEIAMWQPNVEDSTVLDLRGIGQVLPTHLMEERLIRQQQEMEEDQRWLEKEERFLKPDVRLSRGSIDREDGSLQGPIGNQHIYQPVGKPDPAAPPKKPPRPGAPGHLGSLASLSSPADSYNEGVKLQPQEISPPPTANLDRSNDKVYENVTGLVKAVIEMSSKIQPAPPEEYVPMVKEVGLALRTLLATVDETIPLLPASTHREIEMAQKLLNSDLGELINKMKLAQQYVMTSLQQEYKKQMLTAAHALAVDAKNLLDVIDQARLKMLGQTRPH

As to `CCOP(=O)(Cc1ccc(Nc2ncc(C(F)(F)F)c(NCc3cccnc3N(C)S(C)(=O)=O)n2)cc1)OCC` [Example 1, diethyl [4-({4-[({2-[methyl(methylsulfonyl)amino]pyridin-3-yl}methyl)amino]-5-(trifluoromethyl)pyrimidin-2-yl}amino)benzyl]phosphonate], the half-maximal inhibitory concentration (IC50) on FAK [1], at FAK [2] (setting [4]), on FAK [2] (setting [5]) and on FAK [3] was less than 1000 nM throughout.

As to `CCOP(=O)(OCC)c1ccc(Nc2ncc(C(F)(F)F)c(NCc3cccnc3N(C)S(C)(=O)=O)n2)cc1` [Example 2, Diethyl [4-({4-[({2-[methyl(methylsulfonyl)amino]pyridin-3-yl}methyl)amino]-5-(trifluoromethyl)pyrimidin-2-yl}amino)phenyl]phosphonate], the IC50 at FAK [1] lay in the range of 1000 to 10000 nM.

For the molecule `CCOP(=O)(Cc1cccc(Nc2ncc(C(F)(F)F)c(NCc3cccnc3N(C)S(C)(=O)=O)n2)c1)OCC` [Example 4, Diethyl [3-({4-[({2-[methyl(methylsulfonyl)amino]pyridin-3-yl}methyl)amino]-5-(trifluoromethyl)pyrimidin-2-yl}amino)benzyl]phosphonate], the IC50 is 1000 to 10000 nM at FAK [1], 1000 to 10000 nM at FAK [2] (setting [4]), 1000 to 10000 nM on FAK [2] (setting [5]) and less than 1000 nM against FAK [3].

Regarding `CCOP(=O)(OCC)C(C)c1ccc(Nc2ncc(C(F)(F)F)c(NCc3cccnc3N(C)S(C)(=O)=O)n2)cc1` (stereo not drawn) [Example 5, Diethyl {1-[4-({4-[({2-[methyl(methylsulfonyl)amino]pyridin-3-yl}methyl)amino]-5-(trifluoromethyl)pyrimidin-2-yl}amino)phenyl]ethyl}phosphonate], the concentration for half-maximal inhibition (IC50) at FAK [1], on FAK [2] (setting [4]) and at FAK [2] (setting [5]) was less than 1000 nM throughout.

Consider `CN(c1ncccc1CNc1nc(Nc2ccc(P(=O)(O)O)cc2)ncc1C(F)(F)F)S(C)(=O)=O` [Example 6, [4-({4-[({2-[Methyl(methylsulfonyl)amino]pyridin-3-yl}methyl)amino]-5-(trifluoromethyl)pyrimidin-2-yl}amino)phenyl]phosphonic acid], for which the values for the half-maximal inhibitory concentration (IC50) on FAK [1], at FAK [2] (setting [4]) and on FAK [3] were less than 1000 nM, 1000 to 10000 nM and less than 1000 nM, respectively.

With `CCOP(=O)(OCC)C(C)(C)c1ccc(Nc2ncc(C(F)(F)F)c(NCc3cccnc3N(C)S(C)(=O)=O)n2)cc1` [Example 7], the IC50 on FAK [1], at FAK [2] (setting [4]) and at FAK [2] (setting [5]) was less than 1000 nM in each case.

Turning to `CC(C)OP(=O)(Cc1ccc(Nc2ncc(C(F)(F)F)c(NCc3cccnc3N(C)S(C)(=O)=O)n2)cc1)OC(C)C` [Example 27, dipropan-2-yl [4-({4-[({2-[methyl(methylsulfonyl)amino]pyridin-3-yl}methyl)amino]-5-(trifluoromethyl)pyrimidin-2-yl}amino)benzyl]phosphonate], the IC50 on FAK [1], on FAK [2] (setting [4]), on FAK [2] (setting [5]) and at FAK [2] (setting [6]) was 1000 to 10000 nM throughout.

As to `CN(c1ncccc1CNc1nc(Nc2ccc(CP(=O)(O)O)cc2)ncc1C(F)(F)F)S(C)(=O)=O` [Example 41, [4-({4-[({2-[Methyl(methylsulfonyl)amino]pyridin-3-yl}methyl)amino]-5-(trifluoromethyl)pyrimidin-2-yl}amino)benzyl]phosphonic acid], the IC50 was 1000 to 10000 nM at FAK [1]; 1000 to 10000 nM at FAK [2] (setting [4]); 1000 to 10000 nM at FAK [2] (setting [5]); 1000 to 10000 nM at FAK [2] (setting [6]); less than 1000 nM against FAK [3].

Consider `CCOP(C)(=O)Cc1cccc(Nc2ncc(C(F)(F)F)c(NCc3cccnc3N(C)S(C)(=O)=O)n2)c1` (stereo not drawn) [Example 46, Ethyl methyl[3-({4-[({2-[methyl(methylsulfonyl)amino]pyridin-3-yl}methyl)amino]-5-(trifluoromethyl)pyrimidin-2-yl}amino)benzyl]phosphinate], for which the IC50 is 1000 to 10000 nM at FAK [1], less than 1000 nM on FAK [2] (setting [4]) and less than 1000 nM on FAK [2] (setting [5]).
